From PubChem BioAssay AID844 (SRMLSC, 2007) come the findings set out here.

This assay concerns MRP1 cells, doxorubicin viability shift, 10 uM compound. The experiment in a line: doxorubicin EC50 increase in MRP-1 cells, dose response, cell-based, doxorubicin EC50 shift (AID 844). The note with it: for EC50: measured here: doxorubicin EC50 with compound.

The source made the active and inactive calls. No rule for the calls is given here.

A word on the EC50: it is the concentration needed to bring the measured effect to its halfway point.

Take `Cc1ccc(S(=O)(=O)N2CCC(C(=O)N[C@@H](C)C(=O)NC3CCCCC3)CC2)cc1`: the fold increase in Dox EC50 was 0.88 (inactive) and the EC50 was 4.73 µM.
In the case of `N=C(N)SCc1nc2ccccn2c1Br`, the fold increase in Dox EC50 is 0.28 (inactive) and the EC50 worked out at 1.49 µM.
For `COc1ccc(OC)c(-c2cc(C(=O)Nc3c(C)nn(Cc4ccccc4C)c3C)no2)c1`, in that order: 0.65 (inactive) and 3.49 µM.
For `O=C1[C@@H]2[C@H](Cc3ccc(O)cc3)N[C@]3(C(=O)Nc4ccccc43)[C@@H]2C(=O)N1c1ccc(F)cc1`, in that order: 1.46 (inactive) and 7.88 µM.
For `O=C(Nc1nnc(N2CCCCCC2)s1)c1cc(-c2ccc(Br)cc2)on1`, in that order: 0.91 (inactive) and 4.91 µM.
In the case of `O=C(COc1nsnc1N1CCOCC1)N/N=C/c1ccccc1O`, the fold increase in Dox EC50 is 0.26 (inactive) and the EC50 worked out at 1.39 µM.
For `CCCCN(C(=O)Cc1cccs1)c1nnc(-c2cccnc2)s1`, in that order: 0.86 (inactive) and 4.65 µM.
On to `CN(C)c1ccc(NC(=O)CN2C(=O)CN=C(c3ccccc3)c3cc(Cl)ccc32)cc1`, for which the fold increase in Dox EC50 was 1.29 (inactive) and the EC50 is 6.99 µM.
On to `O=C(Nc1nc(-c2ccccc2)cs1)c1ccc(Br)o1`, for which the fold increase in Dox EC50 is 1.41 (inactive) and the EC50 came to 7.64 µM.
For `CCOc1ccccc1NC(=O)c1cccc(NC(=O)CC(c2ccccc2)c2ccccc2)c1`, in that order: 1.2 (inactive) and 6.45 µM.
For `COc1cccc(/C=N/NC(=O)CNC(=O)c2ccc3c(c2)OCCO3)c1O`, in that order: 0.5 (inactive) and 2.71 µM.
For `CC12CCC(c3nnc(SCc4ccc(Cl)cc4)nc31)C2(C)C` (centres undefined), in that order: 1.32 (inactive) and 7.1 µM.
For the compound `COc1cc(SC)ccc1C(=O)NCCOc1ccc(Cl)cc1`, the fold increase in Dox EC50 is 1.36 (inactive) and the EC50 was determined as 7.36 µM.
For `O=C(Nc1nnc(C(F)(F)F)s1)C1COc2ccccc2O1` (centres undefined), the fold increase in Dox EC50 was 0.85 (inactive) and the EC50 was determined as 4.56 µM.
For `O=C(O)CSC1c2ccccc2C(=O)N1Cc1ccccc1` (centres undefined), in that order: 0.82 (inactive) and 4.42 µM.
For `Cc1cccc(N2CCN(C(=O)c3cc4c(=O)n(C)c5ccccc5c4n3C)CC2)c1C`, in that order: 0.08 (inactive) and 0.44 µM.
For `CCOc1ccc(OCC)c(-c2c(=O)n(OCc3ccc(C(C)(C)C)cc3)c3ccccc3[n+]2[O-])c1`, in that order: 0.85 (inactive) and 4.6 µM.
As for `CCOc1ccc(Cn2nnc(C(=O)NCCc3ccc(Cl)cc3)c2N)cc1`, the fold increase in Dox EC50 was 1.6 and the EC50 was 8.64 µM.
For `COc1ccc(C2CC(c3ccccc3)=NN2C(=O)COC(=O)c2cccnc2Cl)cc1` (centres undefined), in that order: 0.63 (inactive) and 3.4 µM.
For `Cc1onc(-c2c(F)cccc2Cl)c1C(=O)Nc1sc2c(c1C#N)CCC(C(C)(C)C)C2` (centres undefined), in that order: 0.48 (inactive) and 2.61 µM.
Turning to `COc1ccc(N2C(=O)CC(N3CCC(n4c(=O)[nH]c5ccccc54)CC3)C2=O)cc1` (centres undefined), the fold increase in Dox EC50 is 1.04 (inactive) and the EC50 is 5.64 µM.
For `COc1ccc(C(=O)NCc2ccc3c(c2)OCO3)cc1S(=O)(=O)N(C)Cc1ccccc1`, in that order: 0.75 (inactive) and 4.08 µM.
In the case of `C=CCc1c(C)nc(-c2ccccc2)nc1N/N=C(\C)c1ccc(N)cc1`, the fold increase in Dox EC50 was 1.3 (inactive) and the EC50 was determined as 6.99 µM.
For `CCC(Sc1nc2ccccc2o1)C(=O)Nc1nnc(C)s1` (centres undefined), in that order: 1.34 (inactive) and 7.22 µM.
`Cc1c(C(=O)OC(C)C)sc(N)c1C(=O)OC(C)C`: the fold increase in Dox EC50 is 0.94 (inactive) and the EC50 was found to be 5.08 µM.
On to `O=C(CC(Nc1ccc(F)cc1)C(=O)OCC(=O)c1cccs1)c1ccccc1` (centres undefined), for which the fold increase in Dox EC50 was 0.69 (inactive) and the EC50 was 3.73 µM.
For `O=C(c1ccccc1)C(Sc1ncn[nH]1)c1ccccc1` (centres undefined), in that order: 0.68 (inactive) and 3.7 µM.
For `N#Cc1nc(COc2ccccc2)oc1N1CCCC1`, in that order: 0.77 (inactive) and 4.13 µM.
Consider `CN(Cc1ccccc1)c1ncnc2c1cnn2-c1ccccc1`, for which the fold increase in Dox EC50 is 0.54 (inactive) and the EC50 is 2.94 µM.
Turning to `Cc1ccc(-n2c(C)nnc2SCC(=O)Nc2ccccc2)cc1`, the fold increase in Dox EC50 is 1 (inactive) and the EC50 was found to be 5.41 µM.
For `CC(C)Cn1c2c(c(O)c(C(=O)Nc3ccc(F)cc3)c1=O)CCCC2`, in that order: 0.95 (inactive) and 5.15 µM.
`O=C(O)c1cccc(N2C(=O)C3CC=C(Cl)CC3C2=O)c1` (centres undefined): the fold increase in Dox EC50 is 1.48 (inactive) and the EC50 worked out at 7.97 µM.
For `O=C(Nc1nc(=O)n(C(=O)C2CC2)s1)c1ccccc1`, in that order: 0.55 (inactive) and 2.97 µM.
For `Cn1c(N)c(C(=O)COC(=O)c2cc(C3CC3)nc3ccccc23)c(=O)n(Cc2ccccc2)c1=O`, in that order: 0.94 (inactive) and 5.07 µM.
For `CC(C)CNC(=O)c1c(N)n(/N=C/c2ccccn2)c2nc3ccccc3nc12`, in that order: 0.94 (inactive) and 5.08 µM.
Regarding `COc1ccc(C(=O)Nc2ccc(S(=O)(=O)Nc3nccnc3OC)cc2)cc1`, the fold increase in Dox EC50 is 1.12 (inactive) and the EC50 was 6.04 µM.
As for `Cc1c(C)n(C)c2ccc(C(=O)NCc3cccs3)cc12`, the fold increase in Dox EC50 is 1.06 (inactive) and the EC50 amounted to 5.75 µM.
On to `CCCCc1ccc(NC(=O)c2c(C)noc2C)cc1`, for which the fold increase in Dox EC50 was 1.23 (inactive) and the EC50 turned out to be 6.63 µM.
Consider `Cc1cc(C(=O)N/N=C/c2cc(Br)ccc2OC(=O)c2ccccc2)n[nH]1`, for which the fold increase in Dox EC50 is 0.15 (inactive) and the EC50 is 0.808 µM.
Turning to `CC1=NN(c2ccc(C)cc2C)C(=O)C1C(c1ccccc1O)C1C(=O)N(c2ccc(C)cc2C)N=C1C` (centres undefined), the fold increase in Dox EC50 was 0.71 (inactive) and the EC50 was 3.81 µM.
As to `CC(=O)Nc1ccc(-n2c(C)nc(=O)c(-c3ccccc3)c2C)cc1`, the fold increase in Dox EC50 is 0.89 (inactive) and the EC50 stood at 4.83 µM.
Regarding `CCSc1nnc(-c2ccc(C)cc2)c2ccccc12`, the fold increase in Dox EC50 is 0.61 (inactive) and the EC50 came to 3.3 µM.
For `Cc1nnc(NC(=O)c2c(F)cccc2F)s1`, in that order: 1.23 (inactive) and 6.63 µM.
As to `Cc1nn(Cc2c(F)c(F)c(F)c(F)c2F)c(C)c1NC(=O)c1ccc(COc2ccc(F)cc2)o1`, the fold increase in Dox EC50 is 1 (inactive) and the EC50 worked out at 5.42 µM.
For `CCOC(=O)c1ccc(N2C(=O)c3n[nH]c(C)c3C2c2ccc(OC)cc2OC)cc1` (centres undefined), in that order: 0.28 (inactive) and 1.51 µM.
As for `O=C(CC(=O)N/N=C/c1ccccc1O)NCc1cccnc1`, the fold increase in Dox EC50 is 0.39 (inactive) and the EC50 turned out to be 2.08 µM.
`CC(C)(CNC(=O)/C=C/c1ccc(F)cc1)CNC(=O)/C=C/c1ccc(F)cc1`: the fold increase in Dox EC50 was 0.38 (inactive) and the EC50 came to 2.07 µM.
As to `N=c1oc2c3c4c(cc2cc1C(=O)Nc1ccccc1)CCCN4CCC3`, the fold increase in Dox EC50 was 0.43 (inactive) and the 50% effective concentration (EC50) is 2.32 µM.
For `CCCCCCCC1CC(CSc2ncn[nH]2)OC1=O` (centres undefined), in that order: 0.94 (inactive) and 5.08 µM.
For the compound `O=C(NC(=S)Nc1nc(-c2ccccc2)cs1)c1cncc(Br)c1`, the fold increase in Dox EC50 is 0.99 (inactive) and the EC50 was found to be 5.35 µM.
For `COc1ccc(N2CCN(c3oc(COc4ccc(Cl)cc4)nc3C#N)CC2)cc1`, in that order: 1.64 and 8.88 µM.
For `CC(OC(=O)c1snc(C(=O)NC2CCCCC2)c1N)C(=O)NC(C)(C)C` (centres undefined), in that order: 1.1 (inactive) and 5.93 µM.
In the case of `Cc1nc(=O)c(-c2ccccc2)c(C)n1-c1ccc(S(N)(=O)=O)cc1`, the fold increase in Dox EC50 was 1.53 and the EC50 amounted to 8.25 µM.
For `COc1ccc(N2CCN(c3nc(Cl)nc(N4CCOCC4)n3)CC2)cc1`, in that order: 0.69 (inactive) and 3.72 µM.
For `Cc1ccc(C(=O)NNC(=O)c2ccc(SCC3CCCO3)c([N+](=O)[O-])c2)cc1` (centres undefined), in that order: 0.56 (inactive) and 3.01 µM.
For `Cc1cc(NC(=O)CN2C(=O)S/C(=C\c3ccccc3)C2=O)no1`, in that order: 1.03 (inactive) and 5.58 µM.
Take `CCCCn1nnc(NC(=S)NC(=O)c2cccs2)n1`: the fold increase in Dox EC50 was 1.16 (inactive) and the EC50 was 6.26 µM.
On to `CC(/C=C1\SC(=S)N(NC(=O)c2ccc(O)cc2)C1=O)=C\c1ccccc1`, for which the fold increase in Dox EC50 is 0.83 (inactive) and the EC50 was found to be 4.46 µM.
In the case of `C[C@]12C=CC(=O)C=C1CC[C@H]1[C@@H]3C[C@@H](O)[C@](O)(C(=O)CO)[C@@]3(C)C[C@H](O)[C@@]12F`, the fold increase in Dox EC50 is 1.41 (inactive) and the EC50 is 7.62 µM.
For `Nn1c(SCC(=O)Nc2ccccc2F)nc2ccccc2c1=O`, the fold increase in Dox EC50 was 1.41 (inactive) and the EC50 turned out to be 7.59 µM.
Take `COc1ccc(N2C(=O)C(CC(=O)Nc3ccc(F)cc3)N(CCc3cccs3)C2=O)cc1` (centres undefined): the fold increase in Dox EC50 is 0.81 (inactive) and the EC50 came out at 4.38 µM.
For `CC(C)(C)c1ccc(OCC(O)CSc2ncn[nH]2)cc1` (centres undefined), in that order: 0.88 (inactive) and 4.74 µM.
